Measurements reported in patent US20070093499A1, “Use of dasatinib for the treatment of bone metastasis” (Bristol-Myers Squibb Company, priority 2005, published 2007).
Values belong to the compound of their own block, whether it stands above or below them. Ends that are not written are not given here.

Legend:
TPTX rats [1] = assay: Inhibition of PTH-induced hypercalcemia (serum calcium) in TPTX rats, oral BMS-354825; type: in vivo, rat
Protocol: Male Sprague-Dawley TPTX rats with basal serum calcium levels around 7-8 mg/dl were randomly assigned to the experimental groups. Alzet® mini-pumps containing a resorption stimulus (PTH: infusion rate of 0.3 μg/hr) were implanted subcutaneously. In brief, rats were anesthetized with isoflurane (5% of oxygen), the skin of the flank area was disinfected with a topical disinfectant. Following a small incision, a subcutaneous pouch was made with a sterile pair of blunt scissors, a mini-pump was inserted and the incision was closed with a wound clip. Upon drug administration, 500 μl of blood was sampled at the indicated time points by retro-orbital bleeding, the serum was collected and frozen at −80° C. Levels of serum calcium and drug were analyzed accordingly.
The serum levels of calcium of TPTX rats were quantitated by a photometric assay with the Roche Hitachi 917 (H9 17) automated chemistry analyzer (Indianapolis, Ind.). In this method, calcium reacts with o-cresolphthalein complexone in the presence of 8-hydroxyquinoline to form a purple chromophore. The color intensity of the purple complex is directly proportional to the calcium concentration and is measured photometrically on the analyzer. This method is capable of quantifying 0.2-18.2 mg/dL of serum calcium. For samples >18.2 mg/dL the samples must be diluted in saline and the value multiplied by the appropriate factor.
Malignancy related hypercalcemia has been strongly linked with bone resorption mediated by stimulation of native osteoclast formation and activity. […] In this model, the thyroid and parathyroid are surgically removed to induce hypocalcemia, then subsequent infusion with PTH stimulates the osteoclast-mediated calcemic response. […]. […] […]. […] […].
“Zoledronic acid versus placebo in the treatment of skeletal metastases in patients with lung cancer and other solid tumors: a phase III, double-blind, randomized trial—the Zoledronic Acid Lung Cancer and Other Solid Tumors Study Group.” J Clin Oncol 21(16): 3150-7). […] […]. […] […]. Due to the fact that osmotic pump works less efficiently after day 4, we intended not to include the data of calcium levels thereafter. […].

TPTX rats [2] = assay: Serum calcium in thyro-parathyroidectomized rats, IP dosing; type: in vivo, rat
Protocol: Thyro-parathyroidectomy (TPTX) surgery was performed on male Sprague-Dawley rats (200 gram body weight) as described previously.4 Thyro-parathyroidectomized (TPTX) rats with serum calcium values of 5-8 mg/dl were used for the study (normal reference range is 10-12 mg/dl). On the day of the study (48 hours post-surgery), blood was collected from the tail vein under isoflurane anesthesia, and Alzet mini-pumps (delivering 1 μl/hr) containing 0.3 μg/ml of parathyroid hormone (PTH) were implanted subcutaneously. […] Blood was collected at 3, 6 & 24 hours after dosing and analyzed for serum calcium levels.

[3] = system: fetal rat long bone culture; conditions: Missbach et al. 1999; cited from earlier work
ovariectomized rats = conditions: Missbach et al. 1999; cited from earlier work
osteoclasts = conditions: cell culture; Murray et al. 2003; cited from earlier work
bone resorption = conditions: Murray et al. 2003; cited from earlier work
[4] = system: TRAP positive osteoclasts in mouse bone marrow cell culture; assay: Osteoclast formation (TRAP staining) in mouse bone marrow cell culture; type: cell-based
Protocol: Bone marrow was harvested by flushing the femur and tibia bones of CDF-1 mice with PBS followed by washing twice with PBS and resuspending in DMEM with 10% FBS (1-2×10^6 cells/m, 10 ml). Cells were then seeded in 24-well plates (2×10^6 cells/well/ml) and were cultured for 6-9 days in DMEM media supplemented with the cytokines: 10 ng/ml recombinant mouse M-CSF-1 and 100 ng/ml recombinant mouse RANK ligand to induce osteoclast development. Culture medium was replaced every two days till day 5 and there was no medium replacing between day 6 and day 9. […] On days 5, 7, and 9, cell viability and number of TRAP positive cells were determined using the Acid Phosphatase Leukocyte staining kit. The bone marrow cells were washed with PBS and stained according to the protocol recommended by the vendor. TRAP positive cells and osteoclasts were counted using an inverted microscope.
Differentiation to osteoclasts then occurs in the presence of osteoclast differentiation factor or RANK ligand (Buckley and Fraser Buckley, K. A. and W. D. Fraser (2002). “Receptor activator for nuclear factor kappaB ligand and osteoprotegerin: regulators of bone physiology and immune responses/potential therapeutic agents and biochemical markers.” Ann Clin Biochem 39(Pt 6): 551-6.). To establish the cell culture model of osteoclasts, bone marrow cells were freshly harvested from the tibia and femur bones of mice and were seeded in 24-wells plates containing DMEM medium supplemented with 20 ng/ml M-CSF and 100 ng/ml RANK ligand, which are the conditions commonly used in murine bone marrow culturing conditions (Murray, L. J., T. J. Abrams, et al. (2003). “SU11248 inhibits tumor growth and CSF-1R-dependent osteolysis in an experimental breast cancer bone metastasis model.” Clin Exp Metastasis 20(8): 757-66.). The formation of osteoclasts was monitored by TRAP staining for 9 days. […] Starting from day 5, TRAP positive staining cells were observed, and the multi-nucleated TRAP positive staining osteoclasts (with ≧3 nuclei) were clearly detected on day 7 and became most abundant by day 9.
[…]. […] […]. […] […].

[5] = system: PTH-stimulated bone resorption in fetal rat long bones; assay: In vitro bone resorption assay (45Ca release from fetal rat long bones); type: cell-based
Protocol: Fetal rat long bones were prepared and cultured as described previously. (Feyen J H M, Cardinaux F, Gamse R, Bruns C, Azria M, and Trechsel U. N-terminal truncation of salmon calcitonin leads to calcitonin antagonist. Structure activity relationship of N-terminally truncated salmon calcitonin fragments in vitro and in vivo. Biochemistry and Biophysiology Research Communication 1992; 187:8-13.) Briefly, pregnant Sprague Dawley rats were injected subcutaneously with 200 μCi ^45Ca on day 18 of gestation. The following day, radii and ulnae were dissected free from muscle and connective tissue. The cartilaginous ends of the bones were removed and the calcified diaphyses were cultured in 0.5 mL BGJ medium supplemented with 1 mg/mL bovine serum albumin (BSA, fraction V) in 24-well tissue culture plates in a CO2 incubator at 37° C. overnight to reduce free exchangeable calcium. Next, medium was replaced and the bone explants were maintained in culture for 5 days in the presence or absence of the compounds to be tested. On day 2, a 100 μL aliquot was taken from the medium and the medium was replaced with fresh medium with or without treatments. […] The amount of radioactive calcium was determined using a Beckman liquid scintillation counter. Bone resorption was expressed as the percentage ^45Ca released by day 5 of total amount of ^45Ca originally incorporated in bone explants.

in vivo = conditions: Sprague-Dawley, rat, po, 30 mg/kg
Protocol: The serum levels of drug were analyzed by high performance liquid chromatography/mass spectrometry (HPLC/MS). […] After centrifugation to remove precipitated proteins, 5 μl of the supernatant was analyzed by HPLC/MS. The HPLC column was a Phenomenex Prodigy C18-ODS3 column (2 mm×50 mm, […]) maintained at 60° C. with a flow rate of 0.5 ml/min. […] The HPLC was interfaced to a Finnigan LCQ Advantage ion-trap mass spectrometer operated in the positive ion electrospray and full MS/MS mode. […] The limit of quantitation (LOQ) for the purposes of this assay was 0.004 μM. Quality control (QC) samples at two levels in the range of the standard curve were used to accept individual analytical sets. [drawing 3]
PK data analysis was performed by noncompartmental method using Kinetica (v4.0.2, InnaPhase Corporation, Philadelphia, Pa.). The maximum plasma concentration (Cmax) and the time reaching Cmax (Tmax) were determined by visually inspecting the profiles of plasma level of drug vs. time. […] The area under the plasma drug concentration curve (AUC) was estimated by the trapezoidal rule.

Compound: calcitonin: a drug currently being used to manage hypercalcemia clinically, used as a reference compound (CGNLSTCMLGTYTQDFNKFHTFPQTAIGVGAP; ends and bridges not checked; cysteine pairing not given here; UniProt P01258 85-116, looked up) [reference compound]
inhibition of serum calcium levels (TPTX rats [1]; 5 IU/dose sc): rapid inhibition of serum calcium levels, but the inhibition was reversed rapidly
serum calcium levels vs control rats (TPTX rats [1]; day 3, 5 IU/dose sc): no significant difference

Compound: O=P(O)(O)C(O)(Cn1ccnc1)P(=O)(O)O [zometa, reference compound]
onset of inhibition of serum calcium levels (TPTX rats [1]; 0.4 mg/kg/dose sc (QD×5), PTH infused 24 hr prior to treatment): did not produce any appreciable inhibition until 24 hr

Compound: Salmon Calcitonin [reference compound]
Serum Calcium (TPTX rats [2]; 5 IU ip, 0 Hour (before dosing)): 6.68 ± 0.21 mg/dL
Serum Calcium (TPTX rats [2]; 5 IU ip, 3 Hour): 5.06 ± 0.13 mg/dL
Serum Calcium (TPTX rats [2]; 5 IU ip, 6 Hour): 5.14 ± 0.15 mg/dL
Serum Calcium (TPTX rats [2]; 5 IU ip, 24 Hour): 10.62 ± 0.64 mg/dL

Compound: COc1cccc(-c2cn(-c3ccc(CCN4CCC(O)CC4)cc3)c3ncnc(N)c23)c1 [CGP77675]
parathyroid hormone (PTH)-induced bone resorption [3]: inhibitory potency
bone resorption (ovariectomized rats): inhibitory potency

Compound: CCN(CC)CCNC(=O)c1c(C)[nH]c(/C=C2\C(=O)Nc3ccc(F)cc32)c1C [Su-11248]
formation and function of osteoclasts (osteoclasts): inhibitory potency
bone resorption in vivo (bone resorption): inhibitory potency

IC50 ([4]; Mus musculus, Osteoclast, 120 h, read-out: IC50, drug concentration required to inhibit 50% of osteoclast formation): 4.4 nM
IC50 ([5]; Rattus norvegicus, PTH 10^-8 M, read-out: apparent IC50, PTH-stimulated release of 45Ca (bone resorption)): 2 nM
AUC0-24 hr (in vivo): 0.91 µM·h
Cmax (in vivo): 60 nM
AUC(0-t) (in vivo; AUC0-24 hr): 1.16 µM·h
Compound: Cc1nc(Nc2ncc(C(=O)Nc3c(C)cccc3Cl)s2)cc(N2CCN(CCO)CC2)n1 [BMS-354825, N-(2-chloro-6-methylphenyl)-2-((6-(4-(2-hydroxyethyl)-1-piperazinyl)-2-methyl-4-pyrimidinyl)amino)-1,3-thiazole-5-carboxamide]
formation of osteoclasts ([4]; DMEM with M-CSF/RANK ligand, dosed on day 5 post seeding): inhibited dose dependently
number of osteoclasts ([4]; both culturing conditions: MDA-MB-231 condition media and DMEM with CSF/RANK ligand): significantly reduced
number of the TRAP positive staining osteoclasts ([4]; various concentrations dosed on day 5, cultured up to 9 days): significantly reduced
PTH-stimulated bone resorption ([5]; at 5 nM): completely blocks
inhibition of hypercalcemia compared with zometa 0.4 mg/kg/dose sc (TPTX rats [1]; 30 mg/kg/dose po, once daily): more effective than zometa
inhibition of hypercalcemia compared with zometa 0.4 mg/kg/dose sc (TPTX rats [1]; 15 and 5 mg/kg/dose po, multiple treatment schedule): comparable inhibitory effect
time to inhibition of serum calcium levels (TPTX rats [1]; 30, 15, 5 mg/kg/dose po (QD×5), PTH infused 24 hr prior to treatment): ≤ 3 h
inhibition of serum calcium levels (TPTX rats [1]; 30, 15 and 5 mpk po (QD×1), upon initiation of PTH infusion): dose dependent inhibition
inhibition of serum levels of calcium (TPTX rats [1]; 30 mpk (QD×1) and 15 mpk (2QD×1), orally): rapidly inhibited
serum calcium levels vs control rats (TPTX rats [1]; day 3 post drug administration, 30 mpk QD×1 / 15 mpk 2QD×1 po): significantly below those of the control rats
time of maximum inhibition of serum calcium levels (TPTX rats [1]; post drug administration, 15 and 30 mg/kg/dose po): 4 h
Serum Calcium (TPTX rats [2]; 3 mg/kg ip, 0 Hour (before dosing)): 6.74 ± 0.29 mg/dL
Serum Calcium (TPTX rats [2]; 3 mg/kg ip, 3 Hour): 5.68 ± 0.26 mg/dL
Serum Calcium (TPTX rats [2]; 3 mg/kg ip, 6 Hour): 7.94 ± 1.19 mg/dL
Serum Calcium (TPTX rats [2]; 3 mg/kg ip, 24 Hour): 11.88 ± 0.61 mg/dL
significance of serum calcium effect vs vehicle (TPTX rats [2]; 3 mg/kg ip, 3 hour time point): not significant
Serum Calcium (TPTX rats [2]; 10 mg/kg ip, 0 Hour (before dosing)): 6.68 ± 0.25 mg/dL
Serum Calcium (TPTX rats [2]; 10 mg/kg ip, 3 Hour): 5.80 ± 0.19 mg/dL
Serum Calcium (TPTX rats [2]; 10 mg/kg ip, 6 Hour): 5.36 ± 0.12 mg/dL
Serum Calcium (TPTX rats [2]; 10 mg/kg ip, 24 Hour): 7.70 ± 0.78 mg/dL
serum calcium levels vs vehicle and calcitonin (TPTX rats [2]; 10 mg/kg ip, after 24 hours): significantly lower than both vehicle and calcitonin
